According to patent US12419296B2, “Remote detection of pre-determined termite feeding activities in soil” (University of Florida Research Foundation, Inc., priority 2019, dated 2025):

Assays:
[1] = tested on: rat; conditions: cited from earlier work
[2] = tested on: rat; test: rat oral LD50 (acute toxicity); assay type: in vivo; conditions: relative to soil termiticide fipronil

N#Cc1nn(-c2c(Cl)cc(C(F)(F)F)cc2Cl)c(N)c1[S+]([O-])C(F)(F)F (stereo not drawn) [fipronil]
rat oral LD50 [1]: 97 mg/kg

O=C(NC(=O)c1c(F)cccc1F)Nc1cc(Cl)c(OC(F)(F)C(F)C(F)(F)F)c(Cl)c1F (stereo not drawn) [noviflumuron]
fold less toxic than fipronil (rat oral LD50) [2]: 32 fold
rat oral LD50 [1]: > 3,160 mg/kg
